Data taken from US20160237059A1, “HETEROCYCLIC SUBSTITUTED TRIFLUOROMETHYL PYRIMIDINONES AND THEIR USE” (BAYER PHARMA AKTIENGESELLSCHAFT, priority 2013, published 2016).

Tests used:
[1] = target: T1, murine CCR2 (Mus musculus, UniProt P51683); assay: Functional β-arrestin recruiting test with murine MCP-1 (B-2b); assay type: cell-based; settings: U2OS β-arrestin cell line transfected with murine CCR2; agonist murine MCP-1; in some cases means of several determinations
T1 construct: host or cells: U2OS β-arrestin cell line
Protocol: The antagonistic action of test substances on CCR2 was determined in a β-arrestin test. The PathHunter β-arrestin GPCR test system (DiscoveRx Corporation, Ltd.) is a cell-based functional method for detecting binding of β-arrestin to an activated receptor. The molecular basis is a […] complementation measured by the enzymatic conversion of a chemiluminescent substrate. The test cell used was a U2OS β-arrestin cell line transfected with murine CCR2 (93-0543C3, DiscoveRx Corporation, Ltd.).
(§1) The test substances were dissolved in dimethyl sulphoxide (DMSO) at a concentration of 10 mM and serially diluted with DMSO in steps of 1:3.16 for a 10-point dose/activity analysis. According to the desired test concentrations, the substances were pre-diluted in Tyrode with 2 mM CaCl2 and 0.05% BSA.
The cells, cultivated in MEM Eagle (supplemented with 10% FCS, 50 U/ml of penicillin, 50 μg/ml of streptomycin, 250 μg/ml of hygromycin and 500 μg/ml of geniticin), were sown at 2000 cells/25 μl in 384 well, μCLEAR/black cell culture plates from Greiner (#781092) and incubated at 37° C. for 24 h. The sowing medium consisted of Opti-MEM (supplemented with 1% FCS, 50 U/ml of penicillin and 50 μg/ml of streptomycin). The cells were pre-incubated for 10 min with 10 μl of the test substances diluted in buffer, and 10 μl of agonist solution [human MCP-1 (PeproTech, #300-04) in Tyrode with 0.05% BSA) were then added. The human MCP-1 was employed at the concentration which corresponds to the EC50 which had been determined in a preliminary test (usually about 3 nM). After 90 min of incubation at 37° C., the solution was removed, and recruitment of β-arrestin to CCR2 was detected with the aid of the PathHunter detection reagent (93-001, DiscoveRx Corporation, Ltd.) according to the instructions of the manufacturer. Luminescence was measured after an incubation time of 60 min using a proprietary luminescence imaging measuring instrument. The molar concentration of the test substance which caused 50% inhibition of the MCP-1 effect (IC50) was determined using a 4-parameter logistic function (Hill function).
The test was carried out in a manner identical to that described above under B-2a, but using murine MCP-1 (PeproTech, #250-10) as agonist.

[2] = target: T2, human CCR2 (Homo sapiens, UniProt P41597); assay: Functional Ca2+ release test (B-1); assay type: cell-based; settings: Chem-1 cell line transfected with human CCR2; 50% inhibition of the MCP-1 effect, MCP-1 at EC50 (about 5 nM); in some cases means of several determinations
T2 construct: host or cells: Chem-1 cell line
T2 sequence (P41597 1-360 isoform P41597-2): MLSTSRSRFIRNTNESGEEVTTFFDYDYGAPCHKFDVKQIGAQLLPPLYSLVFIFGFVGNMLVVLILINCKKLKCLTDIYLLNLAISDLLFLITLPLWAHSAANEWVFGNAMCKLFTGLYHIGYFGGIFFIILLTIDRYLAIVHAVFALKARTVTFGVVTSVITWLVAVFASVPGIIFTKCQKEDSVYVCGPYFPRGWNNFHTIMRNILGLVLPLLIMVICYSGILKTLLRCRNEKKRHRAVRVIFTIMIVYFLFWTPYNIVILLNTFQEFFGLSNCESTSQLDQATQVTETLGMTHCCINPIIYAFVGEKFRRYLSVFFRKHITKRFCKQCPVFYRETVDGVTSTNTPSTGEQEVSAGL
Protocol: The antagonistic action of test substances on CCR2 was determined in a functional Ca^2+ release test. Binding of CCL2/MCP-1 to CCR2 leads to a change in the conformation of the receptor resulting in Gi/Gq protein activation and intracellular signal cascade. This involves, inter alia, an intracellular Ca^2+ release. The test cell used was a Chem-1 cell line transfected with human CCR2 (ChemiSCREEN™ CCR2B Calcium-Optimized FLIPR Cell Line, Merck Millipore).
as §1
The cells, cultivated in DMEM high glucose [supplemented with 10% FCS, 1 mM pyruvate, 15 mM HEPES, 500 μg/ml geniticin and non-essential amino acids (NEAA)], were sown at 5000 cells/25 μl in 384 well, μCLEAR/black cell culture plates from Greiner (#781092) and incubated at 37° C. for 24 h. The sowing medium consisted of DMEM high glucose [supplemented with 5% FCS, 1 mM pyruvate, 15 mM HEPES, 50 U/ml penicillin, 50 μg/ml streptomycin and non-essential amino acids (NEAA)]. The medium was then removed and the cells were charged for 60 min at 37° C. with Fluo-4 dye [25 μl Tyrode with 3 μM Fluo-4 AM (1 mM DMSO stock solution), 0.4 mg/ml Brilliant Black, 2.5 mM probenicid, 0.03% Pluronic F-127]. The cells were pre-incubated for 10 min with 10 μl of the test substances diluted in buffer, and 20 μl of agonist solution (MCP-1 in Tyrode with 0.05% BSA) were then added. MCP-1 was employed at the concentration which corresponds to the EC50 which had been determined in a preliminary test (usually about 5 nM). Ca^2+ release was monitored over a period of 120 s in 1 s increments in a proprietary fluorescence imaging reader. The molar concentration of the test substance which caused 50% inhibition of the MCP-1 effect (IC50) was determined using a 4-parameter logistic function (Hill function).

T1 sequence (P51683 whole entry): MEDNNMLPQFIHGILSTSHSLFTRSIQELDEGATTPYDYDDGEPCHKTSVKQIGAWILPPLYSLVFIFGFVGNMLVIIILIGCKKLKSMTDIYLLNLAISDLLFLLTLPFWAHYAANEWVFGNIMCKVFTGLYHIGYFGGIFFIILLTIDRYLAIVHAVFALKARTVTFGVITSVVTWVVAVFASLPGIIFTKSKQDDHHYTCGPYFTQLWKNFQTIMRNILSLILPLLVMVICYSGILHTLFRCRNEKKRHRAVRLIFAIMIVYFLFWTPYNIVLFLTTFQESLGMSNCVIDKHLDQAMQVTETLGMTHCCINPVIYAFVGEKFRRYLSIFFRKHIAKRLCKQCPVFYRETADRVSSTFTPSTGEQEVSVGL

Structure (SMILES) | IC50 [1] | IC50 [2]
O=c1[nH]c(-c2ncccc2C(F)(F)F)nc(C(F)(F)F)c1Oc1ccc(Cl)c(C(F)(F)F)c1 [Example 186, 5-[4-chloro-3-(trifluoromethyl)phenoxy)-6-(trifluoromethyl)-2-[3-(trifluoromethyl)pyridin-2-yl]pyrimidin-4(3H)-one] | 0.513 µM | 0.0048 µM
CN(C)c1ccc(-c2nc(C(F)(F)F)c(Oc3ccc(Cl)c(Cl)c3)c(=O)[nH]2)nc1 [Example 133, 5-(3,4-dichlorophenoxy)-2-[5-(dimethylamino)pyridin-2-yl]-6-(trifluoromethyl)pyrimidin-4(3H)-one] | 21.7 µM | 0.0008 µM
O=c1[nH]c(-c2cccc[n+]2[O-])nc(C(F)(F)F)c1Oc1ccc(Cl)c(Cl)c1 [Example 161, 5-(3,4-dichlorophenoxy)-2-(1-oxidopyridin-2-yl)-6-(trifluoromethyl)pyrimidin-4(3H)-one] | 0.432 µM | 0.0023 µM
Cn1nc(-c2nc(C(F)(F)F)c(Oc3ccc(Cl)c(Cl)c3)c(=O)[nH]2)c2ccccc21 [Example 136, 5-(3,4-dichlorophenoxy)-2-(1-methyl-1H-indazol-3-yl)-6-(trifluoromethyl)pyrimidin-4(3H)-one] | 1.22 µM | 0.039 µM
CN(C)c1ccc(-c2nc(C(F)(F)F)c(Oc3ccc(Cl)c(Cl)c3)c(=O)[nH]2)nn1 [Example 200] | 0.359 µM | 0.0012 µM
CC(=O)Nc1ccc2c(-c3nc(C(F)(F)F)c(Oc4ccc(Cl)c(C(F)(F)F)c4)c(=O)[nH]3)noc2c1 [Example 209] | 0.368 µM | 0.022 µM
CSc1ccnc(-c2nc(C(F)(F)F)c(Oc3ccc(Cl)c(C(F)(F)F)c3)c(=O)[nH]2)c1 [Example 191, 5-[4-chloro-3-(trifluoromethyl)phenoxy)-2-[4-(methylsulphanyl)pyridin-2-yl]-6-(trifluoromethyl)pyrimidin-4(3H)-one] | 0.693 µM | 0.005 µM
CSc1cnn(-c2nc(C(F)(F)F)c(Oc3ccc(Cl)c(Cl)c3)c(=O)[nH]2)c1 [Example 248] | 1.23 µM | 0.0022 µM
CS(=O)(=O)c1cccnc1-c1nc(C(F)(F)F)c(Oc2ccc(Cl)c(Cl)c2)c(=O)[nH]1 [Example 268, 5-(3,4-Dichlorophenoxy)-2-[3-(methylsulphonyl)pyridin-2-yl]-6-(trifluoromethyl)pyrimidin-4(3H)-one] | 0.484 µM | 0.0058 µM
O=c1[nH]c(-c2cnccn2)nc(C(F)(F)F)c1Oc1ccc(Cl)c(Cl)c1 [Example 127, 5-(3,4-dichlorophenoxy)-2-(pyrazin-2-yl)-6-(trifluoromethyl)pyrimidin-4(3H)-one] | 0.372 µM | 0.0021 µM
COc1ccc(-c2nc(C(F)(F)F)c(Oc3ccc(Cl)c(Cl)c3)c(=O)[nH]2)nc1 [Example 148, 5-(3,4-dichlorophenoxy)-2-(5-methoxypyridin-2-yl)-6-(trifluoromethyl)pyrimidin-4(3H)-one] | 0.454 µM | 0.042 µM
COc1nc(N)n(-c2nc(C(F)(F)F)c(Oc3ccc(Cl)c(Cl)c3)c(=O)[nH]2)n1 [Example 254] | 0.613 µM | 0.015 µM
CC(C)Oc1ccnc(-c2nc(C(F)(F)F)c(Oc3ccc(Cl)c(Cl)c3)c(=O)[nH]2)c1 [Example 145, 5-(3,4-dichlorophenoxy)-2-(4-isopropoxypyridin-2-yl)-6-(trifluoromethyl)pyrimidin-4(3H)-one] | 2.81 µM | 0.322 µM

Compounds with a lower IC50 [1], results first:

IC50 [1] | IC50 [2] | Structure (SMILES)
0.059 µM | 0.0003 µM | COc1cccnc1-c1nc(C(F)(F)F)c(Oc2ccc(Cl)c(C)c2)c(=O)[nH]1 [Example 194, 5-(4-chloro-3-methylphenoxy)-2-(3-methoxypyridin-2-yl)-6-(trifluoromethyl)pyrimidin-4(3H)-one]
0.164 µM | 0.0006 µM | COc1cc(OC)nc(-c2nc(C(F)(F)F)c(Oc3ccc(Cl)c(C(F)(F)F)c3)c(=O)[nH]2)n1 [Example 122, 5-[4-chloro-3-(trifluoromethyl)phenoxy]-4′,6′-dimethoxy-6-(trifluoromethyl)-2,2′-bipyrimidin-4(3H)-one]
0.3 µM | 0.0007 µM | CN(C)c1ccc(-c2nc(C(F)(F)F)c(Oc3ccc(Cl)c(C(F)(F)F)c3)c(=O)[nH]2)nn1 [Example 201]
0.274 µM | 0.0051 µM | Cn1nc(-c2nc(C(F)(F)F)c(Oc3ccc(Cl)c(Cl)c3)c(=O)[nH]2)c2c(Cl)cccc21 [Example 141, 2-(4-chloro-1-methyl-1H-indazol-3-yl)-5-(3,4-dichlorophenoxy)-6-(trifluoromethyl)pyrimidin-4(3H)-one]
0.087 µM | 0.0005 µM | Cn1ccc(-c2nc(C(F)(F)F)c(Oc3ccc(Cl)c(C(F)(F)F)c3)c(=O)[nH]2)n1 [Example 226]
0.0079 µM | 0.0007 µM | O=c1[nH]c(-c2ncccc2Br)nc(C(F)(F)F)c1Oc1ccc(Cl)c(Cl)c1 [Example 181, 2-(3-bromopyridin-2-yl)-5-(3,4-dichlorophenoxy)-6-(trifluoromethyl)pyrimidin-4(3H)-one]
0.086 µM | 0.0011 µM | COc1cncnc1-c1nc(C(F)(F)F)c(Oc2ccc(Cl)c(Cl)c2)c(=O)[nH]1 [Example 143, 5-(3,4-dichlorophenoxy)-5′-methoxy-6-(trifluoromethyl)-2,4′-bipyrimidin-4(3H)-one]
0.299 µM | 0.0015 µM | O=c1[nH]c(-c2ncccc2Cl)nc(C(F)(F)F)c1Cc1ccc(Cl)cc1 [Example 211]
0.153 µM | 0.0018 µM | Cc1cnc(-c2nc(C(F)(F)F)c(Oc3ccc(Cl)c(C(F)(F)F)c3)c(=O)[nH]2)[nH]1 [Example 242]
0.075 µM | 0.0008 µM | O=c1[nH]c(-c2n[nH]c3ccccc23)nc(C(F)(F)F)c1Oc1ccc(Cl)c(C(F)(F)F)c1 [Example 140, 5-[4-chloro-3-(trifluoromethyl)phenoxy]-2-(1H-indazol-3-yl)-6-(trifluoromethyl)pyrimidin-4(3H)-one]
0.076 µM | 0.0008 µM | Cc1cnc(-c2nc(C(F)(F)F)c(Oc3ccc(Cl)c(Cl)c3)c(=O)[nH]2)[nH]1 [Example 241]
0.15 µM | 0.0003 µM | Cn1ccc(-c2nc(C(F)(F)F)c(Oc3ccc(Cl)c(Cl)c3)c(=O)[nH]2)n1 [Example 225]
0.282 µM | 0.0092 µM | O=c1[nH]c(-c2ncccc2OC(F)(F)F)nc(C(F)(F)F)c1Oc1ccc(Cl)c(C(F)(F)F)c1 [Example 204]
